Measurements reported in publication PMC10528180 (Foods, 2023).
pIC50, pKd: −log10 of the molar value.

What was measured:
[1] = target: T1, α-amylase (Sus scrofa, UniProt P00690); test: Inhibition kinetic analysis (Lineweaver-Burk) on α-amylase; type: biochemical, porcine; design: Vmax α-amylase: unit not given beside the values
T1 construct: α-amylase (EC 232-565-6, powder, ≥5 units/mg solid) isolated from porcine pancreas; purchased Sigma-Aldrich Co; host or cells: porcine pancreas
T1 sequence (P00690 16-511): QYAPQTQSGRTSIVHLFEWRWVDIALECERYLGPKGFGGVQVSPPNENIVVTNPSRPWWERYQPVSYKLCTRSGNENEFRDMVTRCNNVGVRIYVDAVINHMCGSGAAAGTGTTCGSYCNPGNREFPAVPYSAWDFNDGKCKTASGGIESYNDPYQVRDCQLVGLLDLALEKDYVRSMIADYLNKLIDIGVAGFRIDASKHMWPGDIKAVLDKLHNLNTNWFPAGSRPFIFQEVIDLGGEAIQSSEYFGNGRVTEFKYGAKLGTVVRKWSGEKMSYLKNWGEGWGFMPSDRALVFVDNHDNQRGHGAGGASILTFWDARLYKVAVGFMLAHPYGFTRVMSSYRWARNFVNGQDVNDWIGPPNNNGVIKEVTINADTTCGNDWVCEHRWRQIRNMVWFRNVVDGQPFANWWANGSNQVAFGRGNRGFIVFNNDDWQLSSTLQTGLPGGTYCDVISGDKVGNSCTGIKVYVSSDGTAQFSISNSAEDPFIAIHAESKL
Protocol: (§1) The reactions of a series of compounds with substrates pNαPG and G3-CNP were tested using the Lineweaver–Burk expression in Equation (1) to calculate the maximum velocity (Vmax) and Michaelis–Menten constant (Km) values. (1) 1/v=Km/Vmax1/[S]+1/Vmax, where Vmax and Km are the maximum velocity of the enzyme and the Michaelis–Menten constant without inhibitor, respectively. [S] is the concentrations of the substrate and inhibitor.

[2] = target: T1, α-amylase; test: Fluorescence quenching experiment with α-amylase (Stern-Volmer, double logarithmic, Van 't Hoff); type: binding, porcine; conditions: for pKd: Ka (binding constant) α-amylase
From the text: Based on the previously described techniques, the fluorescence quenching experiment was somewhat modified. […] The 5.0 nm excitation and emission slit widths were predetermined.
The drop in fluorescence intensity brought on by the interaction of the quencher and the fluorescence group is what causes dynamic quenching. When the collision between the quencher and the fluorescence group intensifies as the temperature rises, the quenching constant rises. The quenching mechanism of the enzyme was further studied using the Stern–Volmer equation:(2) F0/F=1+Kqτ0Q=1+Ksv[Q], where Kq is the bimolecular quenching constant, F0 represents the fluorescence intensity of starch-digesting enzymes in the absence of inhibitors, F represents the fluorescence intensity of starch-digesting enzymes in the presence of inhibitors, and τ0 is the lifetime of the fluorophore in protein (about 10^−8 s).
By calculating the thermodynamic parameters of the quenching process, the binding affinity and the main force of the reaction process were evaluated. […] The thermodynamic parameters ΔH, ΔS, and ΔG represent enthalpy change, entropy change, and free energy change, respectively. […] The interaction forces in the reaction process can be roughly divided into four types: hydrophobic interaction, hydrogen bonding, electrostatic interaction, and van der Waals interaction.

[3] = test system: db/db mice; test: Postprandial blood glucose level measurement after oral starch load; type: in vivo; conditions: for glucose AUC / reduction of glucose AUC of diabetic mice: oral starch 2 g/kg; for reduction of glucose AUC of diabetic mice: vs model
Protocol: db/db mice and C57BL/6J mice were purchased f0rom Beijing Zhishan Health Medical Research Institute. The animal testing procedure was approved by Beijing Huayuan Times Technology Co., Ltd Ethics Committee on the Management and Welfare of Laboratory Animals. (Ethics review batch number: HYSD2023-04) and strictly follows the local and national codes of ethics. All mice were placed in a control chamber at 25 °C and 60% relative humidity with a light/dark period of 12/12 h. During this period, all mice had free access to normal feed and water. […] All mice were given starch (2 g/kg) orally 60 min after treatment. Blood samples were taken from the caudal vein and blood glucose was measured after 0, 30, 60, and 120 min. The area under the curve (AUC) was calculated using the trapezoidal rule.

[4] = target: T2, α-glucosidase (Saccharomyces cerevisiae, UniProt P53341); test: Inhibition kinetic analysis (Lineweaver-Burk) on α-glucosidase; type: biochemical
T2 construct: purchased Sigma-Aldrich Co
T2 sequence (P53341 whole entry): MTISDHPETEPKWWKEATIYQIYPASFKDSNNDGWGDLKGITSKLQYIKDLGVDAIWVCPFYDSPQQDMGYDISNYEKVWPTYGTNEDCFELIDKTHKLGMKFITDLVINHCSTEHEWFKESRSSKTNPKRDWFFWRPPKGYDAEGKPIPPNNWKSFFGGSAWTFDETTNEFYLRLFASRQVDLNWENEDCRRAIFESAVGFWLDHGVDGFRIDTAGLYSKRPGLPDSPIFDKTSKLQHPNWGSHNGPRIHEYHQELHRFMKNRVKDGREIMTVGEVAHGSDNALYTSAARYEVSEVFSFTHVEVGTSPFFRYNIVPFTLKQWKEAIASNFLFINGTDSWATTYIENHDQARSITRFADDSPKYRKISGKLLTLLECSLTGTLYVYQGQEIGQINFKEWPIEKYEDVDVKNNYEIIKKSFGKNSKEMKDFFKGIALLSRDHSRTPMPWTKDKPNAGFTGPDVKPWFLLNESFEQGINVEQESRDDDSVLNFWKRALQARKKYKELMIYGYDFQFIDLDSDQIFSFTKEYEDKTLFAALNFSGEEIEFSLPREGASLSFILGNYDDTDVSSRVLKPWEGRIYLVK
Protocol: as §1

[5] = target: T1, α-amylase; test: In vitro α-amylase activity assay (G3-CNP, absorbance 405 nm); type: biochemical, porcine
Protocol: The other reagents used in this experiment are analytically pure reagents purchased from Sigma-Aldrich Co. (St. Louis, MI, USA) unless specified otherwise.
The in vitro […] activity assay was determined using spectrophotometry, as previously reported, with only minor modifications. A total of 5 U/mL of α-amylase and the appropriate quantity of 2-chloro-4-nitrophenyl α-D-maltotrioside (G3-CNP) were produced. […] Gradient dilution with a phosphate-buffered solution was used to create sample solutions of various concentrations. First, different concentrations of compound (10 μL), an enzyme solution (40 μL), and potassium phosphate buffer (100 μL) were pre-incubated in 96-well plates at 37 °C for 10 min.
The enzymatic inhibitory activity of the tested compounds was calculated using the following formula: Inhibition %=[(Abs control−Abs sample)/Abs control]×100
The IC50 values of the tested compounds were calculated using nonlinear fitting (logit method).

## O=c1c(O)c(-c2ccc(O)c(O)c2)oc2cc(O[C@@H]3O[C@H](CO)[C@@H](O)[C@H](O)[C@H]3O)cc(O)c12 [Quercimeritrin]
[1]; Lineweaver-Burk diagram
  inhibition mode on α-amylase: competitive inhibition
[1]; [I] 15.6 μM
  Vmax α-amylase: 0.0521
[1]; [I] 31.3 μM
  Vmax α-amylase: 0.0532
[1]; [I] 62.5 μM
  Vmax α-amylase: 0.0522
[1]; [I] 125 μM
  Vmax α-amylase: 0.0526
[1]; [I] 250 μM
  Vmax α-amylase: 0.0503
[1]; [I] 500 μM
  Vmax α-amylase: 0.0508
[2]
  fluorescence quenching mechanism, α-amylase: static quenching
[2]; T 300.15 K
  pKd: 4.82
  Ksv (quenching constant) α-amylase: 0.13 ±0.03 10^5 /M
  n (number of binding sites) α-amylase: 1.20
[2]; T 305.15 K
  pKd: 4.54
  Ksv (quenching constant) α-amylase: 0.15 ±0.02 10^5 /M
  n (number of binding sites) α-amylase: 1.10
[2]; T 310.15 K
  pKd: 4.41
  Ka (binding constant) α-amylase: 0.26 ± 0.01 10^5 /M
  Ksv (quenching constant) α-amylase: 0.18 ±0.04 10^5 /M
  n (number of binding sites) α-amylase: 1.04
[2]; Van 't Hoff, 300.15-310.15 K
  ΔH α-amylase: -3.37 ± 0.93 kcal/mol
  ΔS α-amylase: -153.31 ±34.89 J/mol/K
[2]; text summary over temperatures
  n (number of binding sites) α-amylase: ~1
[3]; 100 mg/kg
  glucose AUC: 43.7 mmol·h/L
  reduction of glucose AUC of diabetic mice: 19.0%
[3]; 200 mg/kg
  glucose AUC: 40.7 mmol·h/L
  reduction of glucose AUC of diabetic mice: 24.5%
[3]; HD group 200 mg/kg, oral starch
  postprandial blood glucose level: significantly lower than that of the control and acarbose groups
[4]; Lineweaver-Burk diagram
  inhibition mode on α-glucosidase: competitive inhibition
[4]; [I] 15.6 μM
  Vmax α-glucosidase: 0.2151
[4]; [I] 31.3 μM
  Vmax α-glucosidase: 0.2028
[4]; [I] 62.5 μM
  Vmax α-glucosidase: 0.2000
[4]; [I] 125 μM
  Vmax α-glucosidase: 0.1916
[4]; [I] 250 μM
  Vmax α-glucosidase: 0.1890
[4]; [I] 500 μM
  Vmax α-glucosidase: 0.1761
[5]
  pIC50: < 3.60
[5]; at 500 µM, read-out: α-Amylase inhibition
  inhibition at 500 µM: 57%
